Data: article PMC4474090 (Journal of pharmaceutical sciences, 2012)

How the values were obtained:
[1] = system: ICAM-1/LFA-1-mediated heterotypic T-cell adhesion; details: compared with cIBR; cited from earlier work
[2] = system: ICAM-1/LFA-1-mediated heterotypic T-cell adhesion; assay: Inhibition of ICAM-1/LFA-1-mediated heterotypic T-cell adhesion; assay type: cell-based; details: compared with CH7
[3] = system: rat adjuvant arthritis model; assay: Suppression of RA in rat adjuvant arthritis model; assay type: in vivo
[4] = system: rat adjuvant arthritis model; assay type: in vivo
Molt-3 T cells = details: read-out: cytotoxicity IC50; LFA-1-expressing Molt-3 T cells; cited from earlier work
KB epithelial cells = details: read-out: toxicity IC50; cited from earlier work
[5] = 0.05 mg/kg i.v. once a day, Day 14

cyclo(1,6)PRGGSV [CH7]
activity in inhibiting ICAM-1/LFA-1-mediated heterotypic T-cell adhesion [1]: activity comparable to that of cIBR

cyclo(1,6)PRGGKV [CHK7]
cell adhesion inhibitory activity [2]: lower cell adhesion inhibitory activity than the parent CH7

CN(Cc1cnc2nc(N)nc(N)c2n1)c1ccc(C(=O)N[C@@H](CCC(=O)O)C(=O)O)cc1 [MTX, Methotrexate]
AUC Paw Ankle Diameter ± SE [3, 5]: 2.388 ± 0.028 | Bone Resorption Score ± SE [3, 5]: 3.1 ± 0.4 | Inflammation Score ± SE [3, 5]: 4.9 ± 0.1 | ankle histology: bone resorption ([3]; 0.05 mg/kg, day 14, H&E): Moderate bone resorption was present across the physis | ankle histology: synovitis and periarticular inflammation ([3]; 0.05 mg/kg, day 14, H&E): severe synovitis (S) and periarticular inflammation | Paw Weight ± SE ([3]; arthritis rats, 0.05 mg/kg i.v. once a day day 0-14, Day 14): 3.5790 ± 0.0877 g | spleen histology: pyogranulomatous inflammation ([4]; 0.05 mg/kg): multi-focal small areas of pyogranulomatous inflammation | animal body weight ([4]; arthritis animals, 0.05 mg/kg, days 0-14): lost weight after day 8 | Rat Liver Weight ± SE ([4]; arthritis rats, 0.05 mg/kg i.v. once a day, Day 14): 6.1289 ± 0.1451 g | IC50 (Molt-3 T cells): 61 nM | IC50 (KB epithelial cells): 27 nM
